# Experimental data reported in patent US20160145257A1, “SUBSTITUTED XANTHINES AND METHODS OF USE THEREOF” (Hydra Biosciences, Inc., priority 2013, published 2016).
# Structures can show the parent of a compound that is named as a salt.
# Target: T1, hTRPC5 (Homo sapiens, UniProt Q9UL62)
# T1 construct: expressed in transfected cells; host or cells: HEK293 TREx cells with inducible TRPC5 expression
# T1 sequence (Q9UL62 1-973): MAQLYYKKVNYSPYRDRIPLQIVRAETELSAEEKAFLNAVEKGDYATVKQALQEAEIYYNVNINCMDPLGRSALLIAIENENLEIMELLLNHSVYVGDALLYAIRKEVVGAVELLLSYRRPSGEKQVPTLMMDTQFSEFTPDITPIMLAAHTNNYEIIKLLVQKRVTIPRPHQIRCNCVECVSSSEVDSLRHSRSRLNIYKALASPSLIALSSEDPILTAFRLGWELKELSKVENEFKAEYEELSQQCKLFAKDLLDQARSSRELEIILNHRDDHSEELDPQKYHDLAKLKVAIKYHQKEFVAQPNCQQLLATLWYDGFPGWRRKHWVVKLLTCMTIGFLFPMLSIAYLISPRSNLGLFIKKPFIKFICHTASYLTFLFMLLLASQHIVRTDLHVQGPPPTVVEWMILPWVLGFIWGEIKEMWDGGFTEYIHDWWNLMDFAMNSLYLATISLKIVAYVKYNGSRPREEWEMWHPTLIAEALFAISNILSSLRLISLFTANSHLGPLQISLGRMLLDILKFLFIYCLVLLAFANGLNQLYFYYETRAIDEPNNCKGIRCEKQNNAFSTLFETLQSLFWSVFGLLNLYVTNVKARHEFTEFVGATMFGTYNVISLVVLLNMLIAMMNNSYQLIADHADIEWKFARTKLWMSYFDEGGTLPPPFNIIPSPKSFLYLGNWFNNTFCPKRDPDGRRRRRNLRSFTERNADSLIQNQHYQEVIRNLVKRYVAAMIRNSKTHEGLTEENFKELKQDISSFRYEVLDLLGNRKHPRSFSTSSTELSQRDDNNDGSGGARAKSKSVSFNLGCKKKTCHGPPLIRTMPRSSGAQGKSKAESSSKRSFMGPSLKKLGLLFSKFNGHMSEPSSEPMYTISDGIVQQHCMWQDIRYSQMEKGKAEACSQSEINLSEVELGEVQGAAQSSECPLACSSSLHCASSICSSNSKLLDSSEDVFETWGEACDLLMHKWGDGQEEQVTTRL
# Experiment: Whole-cell patch clamp, block of LaCl3-activated TRPC5 inward current
# Format: cell-based
# Settings: TRPC5-expressing HEK293 TREx cells, 80 μM LaCl3, inward current, IC50 estimated from 5 μM and 500 nM, read-out: hTRPC5 Patch La3+ Inwd (nM) (All Batches)
# Procedure: In certain embodiments, exemplary compounds of Formula I and Formula II include the compounds described in Table 1 and in the Examples. A compound described herein may be tested for its ability to block both inward and outward currents through the TRPC5 channel, e.g., by an assay as described in Example 1. For example, IC50 of a compound of Formula I or Formula II was estimated by testing the compound at 5 μM and 500 nM. […] IC50 for a compound of Formula I or Formula II between 500 nM and 5 μM was similarly estimated. As shown, “A” refers to an IC50<100 nM. “B” refers to an IC50 between 100 nM and 500 nM. “C” refers to an IC50 between 500 nM and 1000 nM. “D” refers to an IC50 between 1 μM and 2 μM. “E” refers to an IC50 between 2 μM and 10 μM. “F” refers to […]. “ND” refers to compounds wherein the IC50 was not determined.
# Patch clamp experiments permit the detection of currents through the TRPC5 channel in the cell line described above. In normal whole-cell patch clamp recordings, a glass electrode is brought into contact with a single cell and a high-resistance (gigaohm) seal is established with the cell membrane. The membrane is then ruptured to achieve the whole-cell configuration, permitting control of the voltage of the cell membrane and measurement of currents flowing across the membrane using the amplifier attached to the electrode and resulting in the replacement of cytoplasm with the pipette solution. A perfusion system permits control of the extracellular solution, including the addition of blockers and activators of the current. The current can be activated by including 1.4 μM free Ca^2+ in the pipette (intracellular) solution, and 80 μM LaCl3 in the extracellular solution.
# TRPC5 cells were induced 20-48 hours, removed from growth plates, and replated at low density (to attain good single-cell physical separation) on glass coverslips for measurement. In some cases, cells were grown in low density overnight on glass coverslips. Patch clamp recordings were made in the whole-cell mode with a holding potential of −40 mV. Every 5 seconds, a voltage ramp was applied from −120 to +100 mV, 400 ms in duration. Currents elicited were quantified at −80 mV and +80 mV. The internal solution consisted of 140 mM cesium aspartate, 10 mM HEDTA, 2 mM CaCl2, 2.27 mM MgCl2 and 10 mM HEPES, pH 7.2, with 1,400 nM calculated free Ca^2+. The external solution consisted of 150 mM NaCl, 4.5 mM KCl, 1 mM MgCl2, 2 mM CaCl2, 10 mM HEPES, 10 mM glucose, 1 mM EGTA, pH 7.4. Upon addition of LaCl3, TRPC5 current was induced only in TRPC5-expressing cells and not in parental HEK293 TREx cells. Removal of the LaCl3 stimulus causes most of the current to go away. Potential blockers were tested for ability to block both inward and outward currents in the continued presence of LaCl3.
# IC50 of a compound of Formula I or Formula II was estimated by testing the compound at 5 μM and 500 nM. […] IC50 for a compound of Formula I or Formula II between 500 nM and 5 μM was similarly estimated.
row,SMILES,IC50
1,CN(C)CCCSc1nc2c(c(=O)n(C)c(=O)n2C)n1Cc1cccc(Br)c1 [Compound 22],2000 to 10000 nM
2,CCc1cnc(CSc2nc3c(c(=O)n(C)c(=O)n3C)n2Cc2cccc(Br)c2)o1 [Compound 23],100 to 500 nM
3,"Cc1nc2c(c(=O)n(C)c(=O)n2C)n1Cc1cccc(Br)c1 [Compound 24, 7-(3-bromobenzyl)-1,3,8-trimethyl-1H-purine-2,6(3H,7H)-dione]",2000 to 10000 nM
4,"Cn1c(=O)c2c(nc(CC(=O)O)n2Cc2cccc(Br)c2)n(C)c1=O [Compound 25, 2-(7-(3-bromobenzyl)-1,3-dimethyl-2,6-dioxo-2,3,6,7-tetrahydro-1H-purin-8-yl)acetic acid]",2000 to 10000 nM
5,"CCCOC(=O)Cc1nc2c(c(=O)n(C)c(=O)n2C)n1Cc1cccc(Br)c1 [Compound 26, Propyl-2-(7-(3-bromobenzyl)-1,3-dimethyl-2,6-dioxo-2,3,6,7-tetrahydro-1H-purin-8-yl)-acetate]",2000 to 10000 nM
6,"CCCNC(=O)Cc1nc2c(c(=O)n(C)c(=O)n2C)n1Cc1cccc(Br)c1 [Compound 27, 2-(7-(3-Bromobenzyl)-1,3-dimethyl-2,6-dioxo-2,3,6,7-tetrahydro-1H-purin-8-yl)-N-propylacetamide]",2000 to 10000 nM
7,"CCOc1nc2c(c(=O)n(C)c(=O)n2C)n1Cc1cccc(Br)c1 [Compound 28, 7-(3-bromobenzyl)-8-ethoxy-1,3-dimethyl-1H-purine-2,6(3H,7H)-dione]",2000 to 10000 nM
8,CN1CCN(C(=O)Cc2nc3c(c(=O)n(C)c(=O)n3C)n2Cc2cccc(Br)c2)CC1 [Compound 29],2000 to 10000 nM
9,C[C@H]1CCCN1c1ncc(-c2cccc(NC(=O)Cc3nc4c(c(=O)n(C)c(=O)n4C)n3Cc3cccc(Br)c3)n2)cn1 [Compound 30],2000 to 10000 nM
10,Cn1c(=O)c2c(nc(/C=C/c3ccccc3)n2Cc2cccc(Br)c2)n(C)c1=O [Compound 32],2000 to 10000 nM
11,"Cn1c(=O)c2c(nc(CCc3ccccc3)n2Cc2cccc(Br)c2)n(C)c1=O [Compound 33, 7-(3-bromobenzyl)-1,3-dimethyl-8-phenethyl-1H-purine-2,6(3H,7H)-dione]",500 to 1000 nM
12,"CCOC(=O)Cc1nc2c(c(=O)n(C)c(=O)n2C)n1Cc1cccc(Br)c1 [Compound 34, Ethyl 2-(7-(3-bromobenzyl)-1,3-dimethyl-2,6-dioxo-2,3,6,7-tetrahydro-1H-purin-8yl)acetate]",2000 to 10000 nM
13,Cn1c(=O)c2c(nc(CO)n2Cc2cccc(Br)c2)n(C)c1=O [Compound 35],2000 to 10000 nM
14,CCOC(=O)/C=C/c1nc2c(c(=O)n(C)c(=O)n2C)n1Cc1cccc(Br)c1 [Compound 36],2000 to 10000 nM
15,"CCOC(=O)CCc1nc2c(c(=O)n(C)c(=O)n2C)n1Cc1cccc(Br)c1 [Compound 37, ethyl 3-(7-(3-bromobenzyl)-1,3-dimethyl-2,6-dioxo-2,3,6,7-tetrahydro-1H-purin-8-yl)propanoate]",2000 to 10000 nM
16,"Cn1c(=O)c2c(nc(CC(=O)NCCO)n2Cc2cccc(Br)c2)n(C)c1=O [Compound 38, 2-(7-(3-Bromobenzyl)-1,3-dimethyl-2,6-dioxo-2,3,6,7-tetrahydro-1H-purin-8-yl)-N-(2-hydroxyethyl)acetamide]",2000 to 10000 nM
17,"Cn1c(=O)c2c(nc(CCO)n2Cc2cccc(Br)c2)n(C)c1=O [Compound 39, 7-(3-Bromobenzyl)-8-(2-hydroxyethyl)-1,3-dimethyl-1H-purine-2,6(3H,7H)-dione]",2000 to 10000 nM
18,"Cn1c(=O)c2c(nc(CCCl)n2Cc2cccc(Br)c2)n(C)c1=O [Compound 40, 7-(3-Bromobenzyl)-8-(2-chloroethyl)-1,3-dimethyl-1H-purine-2,6(3H,7H)-dione]",2000 to 10000 nM
19,"C=Cc1nc2c(c(=O)n(C)c(=O)n2C)n1Cc1cccc(Br)c1 [Compound 41, 7-(3-Bromobenzyl)-1,3-dimethyl-8-vinyl-1H-purine-2,6(3H,7H)-dione]",2000 to 10000 nM
20,"CCCOCCc1nc2c(c(=O)n(C)c(=O)n2C)n1Cc1cccc(Br)c1 [Compound 42, 7-(3-Bromobenzyl)-1,3-dimethyl-8-(2-propoxyethyl)-1H-purine-2,6(3H,7H)-dione]",1000 to 2000 nM
21,Cn1c(=O)c2c(nc(CCCO)n2Cc2cccc(Br)c2)n(C)c1=O [Compound 43],2000 to 10000 nM
22,CC1CCN(Cc2nc3c(c(=O)n(C)c(=O)n3C)n2Cc2cccc(Br)c2)CC1 [Compound 44],2000 to 10000 nM
23,Cn1c(=O)c2c(nc(COCc3ccccc3)n2Cc2cccc(Br)c2)n(C)c1=O [Compound 45],2000 to 10000 nM
24,"CCCCOCc1nc2c(c(=O)n(C)c(=O)n2C)n1Cc1cccc(Br)c1 [Compound 55, 7-(3-bromobenzyl)-8-(butoxymethyl)-1,3-dimethyl-1H-purine-2,6(3H,7H)-dione]",500 to 1000 nM

# Next, values leading:
row,IC50,SMILES
1,2000 to 10000 nM,CCCNCCc1nc2c(c(=O)n(C)c(=O)n2C)n1Cc1cccc(Br)c1 [Compound 46]
2,2000 to 10000 nM,"Cn1c(=O)c2c(nc(CCNCc3ccccc3)n2Cc2cccc(Br)c2)n(C)c1=O [Compound 47, 8-(2-(Benzylamino)ethyl)-7-(3-bromobenzyl)-1,3-dimethyl-1H-purine-2,6(3H,7H)-dione]"
3,2000 to 10000 nM,"CCCN(C)CCc1nc2c(c(=O)n(C)c(=O)n2C)n1Cc1cccc(Br)c1 [Compound 48, 7-(3-Bromobenzyl)-1,3-dimethyl-8-(2-(methyl(propyl)amino)ethyl)-1H-purine-2,6(3H,7H)-dione hydrochloride]"
4,2000 to 10000 nM,CCCN(CCc1nc2c(c(=O)n(C)c(=O)n2C)n1Cc1cccc(Br)c1)C(C)=O [Compound 49]
5,1000 to 2000 nM,"CCOC(=O)CCCc1nc2c(c(=O)n(C)c(=O)n2C)n1Cc1cccc(Br)c1 [Compound 50, Ethyl 4-(7-(3-bromobenzyl)-1,3-dimethyl-2,6-dioxo-2,3,6,7-tetrahydro-1H-purin-8-yl)butanoate]"
6,2000 to 10000 nM,CN1CCN(Cc2nc3c(c(=O)n(C)c(=O)n3C)n2Cc2cccc(Br)c2)CC1 [Compound 51]
7,2000 to 10000 nM,Cn1c(=O)c2c(nc(CN3CCOCC3)n2Cc2cccc(Br)c2)n(C)c1=O [Compound 52]
8,2000 to 10000 nM,CCNCCCc1nc2c(c(=O)n(C)c(=O)n2C)n1Cc1cccc(Br)c1 [Compound 53]
9,2000 to 10000 nM,"CCOCCCc1nc2c(c(=O)n(C)c(=O)n2C)n1Cc1cccc(Br)c1 [Compound 54, 7-(3-bromobenzyl)-8-(3-ethoxypropyl)-1,3-dimethyl-1H-purine-2,6(3H,7H)-dione]"
10,1000 to 2000 nM,"CCOCC(C)(C)Sc1nc2c(c(=O)n(C)c(=O)n2C)n1Cc1cccc(Br)c1 [Compound 56, 7-(3-bromobenzyl)-8-(1-ethoxy-2-methylpropan-2-ylthio)-1,3-dimethyl-1H-purine-2,6(3H,7H)-dione]"
